Usually AUC(0-t) stands for the area under the concentration-time curve up to a stated or last time point. Broadly, the Cmax is the maximum level reached in the sampled fluid or tissue. For orientation: clearance means the volume of plasma or blood freed of the substance per unit of time. Read a low clearance as inefficient removal. The half-life is the time needed for the level to fall by half in the phase considered. A low value points to fast loss. The CL/F is the apparent clearance, not corrected for the fraction that reaches the circulation. What is called EC50 is the concentration giving half of the maximal effect.

Series [1] can be described thus: in vivo. As to conditions: male, SD, rat, plasma.
Description: (§1) Example 59: Pharmacokinetic Experiment of Compounds in SD Rats
(§2) SD rats, male, 6-8 weeks old, purchased from Zhejiang Vital River Laboratory Animal Technology Co., Ltd., production license No.: SCXK (Zhejiang) 2019-0001. The animals were maintained in an SPF-grade animal room of Hangzhou Bio-Sincerity Pharma-Tech Co., Ltd., with the experimental animal use license No. of SYXK (Zhejiang) 2021-0014. The animals were used after being acclimatized for at least one week. All experiments were performed in strict compliance with the regulations on experimental animals.
(§3) Four hours after administration, food was provided.
(§4) After administration to SD rats, about 300 µL of blood was collected from the orbit of each animal and anticoagulated with EDTA-Na2. […] The collected blood was placed in an ice bath and centrifuged within 1 h to separate plasma (centrifugation conditions: 2000× g, 10 min, 4 °C). 50 µL of plasma sample was taken, subjected to protein precipitation, and then assayed by UHPLC-MS. The assay data were analyzed and processed using WinNonLin8.1 pharmacokinetic software to obtain pharmacokinetic parameters.
Series [2] in a line: Pharmacokinetic experiment in SD rats. As to conditions: p.o, 5 mg/kg vs i.v, 0.5 mg/kg.
Description: as §1, §2, §3, §4
In series [3] the test system is U937 cells. The experiment in a line: Inhibition of TNF-α-induced necroptosis of U937 cells (CCK-8 assay). The format is cell-based, human. As to conditions: Homo sapiens, U-937, TNF-α 20 ng/mL + BV6 2 µM + Z-VAD-FMK 20 µM, 18 h. The method, boiled down: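 U937 cells (3.6 × 10^4/well) rested 6 h, then exposed to TNF-α 20 ng/mL, BV6 2 µM and Z-VAD-FMK 20 µM plus compound (8-point 3-fold series, 1000–0.46 nM, duplicate) for 18 h. Viability by CCK-8, absorbance at 450 nm after 2-4 h at 37 °C; EC50 calculated.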
A general note: Formazan colour is commonly taken as a measure of viable cells.

Series [4] relates to HT-29 cells. The experiment in a line: Inhibition of TNF-α-induced necroptosis of HT-29 cells (SRB method). Type of series: cell-based, human. As to conditions: Homo sapiens, HT-29, TNF-α 20 ng/mL + BV6 2 µM + Z-VAD-FMK 20 µM, 18 h. In short, it runs like this:
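HT-29 cells (3 × 10^4/well, 24 h) were treated 18 h with compound (8 three-fold dilutions, 1000.00-0.46 nM, duplicate) plus TNF-α 20 ng/mL, BV6 2 µM and Z-VAD-FMK 20 µM final, at 37 °C. Viability was read by SRB absorbance; EC50 values were fitted.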
(In general: The SRB assay estimates cell density from bound dye.)

In series [1] (intravenous, 0.5 mg/kg), `O=C(NC1CCc2cccc3c2N(CC3)C1=O)c1ncn(Cc2c(F)cccc2F)n1` (stereo not drawn) [Example 13 in CN20191051 8248X, 1-(2,6-difluorobenzyl)-N-(4-oxo-1,2,3,4,6,7-hexahydroazepino[3,2,1-hi]indol-3-yl)-1H-1,2,4-triazole-3-carboxamide, reference compound] had an exposure AUC(0-t) of 271 ± 38 ng·h/mL, a Cmax of 983 ± 106 ng/mL, a clearance of 31 ± 4.47 mL/min/kg and a half-life of 26.4 ± 15.6 min. Further, in series [1] (oral, 5 mg/kg), the AUC(0-t) turned out to be 340 ± 174 ng·h/mL, the CL/F worked out at 8.37 ± 4.01 mL/min/kg, the concentration peaked (Cmax) at 467 ± 215 ng/mL and the half-life was 20.4 ± 8.4 min. Further, the “Fabs (%)” value in series [2] is 12.55 ± 6.41%.

Regarding `O=C(NC1CCc2cc(C#Cc3cnn(C(F)F)c3)cc3c2N(CC3)C1=O)c1ncn(Cc2cc(F)cc(F)c2)n1` (stereo not drawn) [III-18, 1-(3,5-difluorobenzyl)-N-(9-((1-(difluoromethyl)-1H-pyrazol-4-yl)ethynyl)-4-oxo-1,2,3,4,6,7-hexahydroazepino[3,2,1-hi]indol-3-yl)-1H-1,2,4-triazole-3-carboxamide], the EC50 in series [3] lay in the range of 10 to 100 nM; in series [4], 5 to 10 nM.

As for `O=C(NC1CCc2cc(C#Cc3cnn(C(F)F)c3)cc3c2N(CC3)C1=O)c1ncn(Cc2ccc(F)cc2F)n1` (stereo not drawn) [III-20, 1-(2,4-difluorobenzyl)-N-(9-((1-(difluoromethyl)-1H-pyrazol-4-yl)ethynyl)-4-oxo-1,2,3,4,6,7-hexahydroazepino[3,2,1-hi]indol-3-yl)-1H-1,2,4-triazole-3-carboxamide], the EC50 in series [3] and in series [4] was 5 to 10 nM each time.

On to `Cc1ccccc1Cn1cnc(C(=O)NC2CCc3cc(C#Cc4cnn(C(F)F)c4)cc4c3N(CC4)C2=O)n1` (stereo not drawn) [III-22, N-(9-((1-(difluoromethyl)-1H-pyrazol-4-yl)ethynyl)-4-oxo-1,2,3,4,6,7-hexahydroazepino[3,2,1-hi]indol-3-yl)-1-(2-methylbenzyl)-1H-1,2,4-triazole-3-carboxamide], for which the values for the EC50 in series [3] and in series [4] were 10 to 100 nM and 5 to 10 nM, respectively.

For `O=C(NC1CCc2cc(C#Cc3cnn(C(F)F)c3)cc3c2N(CC3)C1=O)c1ncn(Cc2ccc(F)c(F)c2)n1` (stereo not drawn) [III-23, 1-(3,4-difluorobenzyl)-N-(9-((1-(difluoromethyl)-1H-pyrazol-4-yl)ethynyl)-4-oxo-1,2,3,4,6,7-hexahydroazepino[3,2,1-hi]indol-3-yl)-1H-1,2,4-triazole-3-carboxamide], the EC50 in series [3] and in series [4] was 10 to 100 nM in each case.

As for `O=C(NC1CCc2cc(C#Cc3cnn(C(F)F)c3)cc3c2N(CC3)C1=O)c1ncn(Cc2ccc(F)cc2)n1` (stereo not drawn) [III-24, N-(9-((1-(difluoromethyl)-1H-pyrazol-4-yl)ethynyl)-4-oxo-1,2,3,4,6,7-hexahydroazepino[3,2,1-hi]indol-3-yl)-1-(4-fluorobenzyl)-1H-1,2,4-triazole-3-carboxamide], the EC50 in series [3] lay in the range of 5 to 10 nM; in series [4] it was 10 to 100 nM.

`O=C(NC1CCc2cc(C#Cc3cnn4c3COCC4)cc3c2N(CC3)C1=O)c1ncn(Cc2c(F)cccc2F)n1` (stereo not drawn) [III-27, 1-(2,6-difluorobenzyl)-N-(9-((6,7-dihydro-4H-pyrazolo[5,1-c] [1,4]oxazin-3-yl)ethynyl)-4-oxo-1,2,3,4,6,7-hexahydroazepino[3,2,1-hi]indol-3-yl)-1H-1,2,4-triazole-3-carboxamide]: the EC50 in series [3] and in series [4] was less than 5 nM throughout.

For the compound `C=Cn1ncc(C#Cc2cc3c4c(c2)CCN4C(=O)C(NC(=O)c2ncn(Cc4c(F)cccc4F)n2)CC3)c1C=O` (stereo not drawn) [III-28, 1-(2,6-difluorobenzyl)-N-(9-((5-formyl-1-vinyl-1H-pyrazol-4-yl)ethynyl)-4-oxo-1,2,3,4,6,7-hexahydroazepino[3,2,1-hi]indol-3-yl)-1H-1,2,4-triazole-3-carboxamide], the EC50 in series [3] and in series [4] was less than 5 nM in each case.

For `O=C(NC1CCc2cc(C#Cc3cnn(C4COC4)c3)cc3c2N(CC3)C1=O)c1ncn(Cc2c(F)cccc2F)n1` (stereo not drawn) [III-29, 1-(2,6-difluorobenzyl)-N-(9-((1-(oxetan-3-yl)-1H-pyrazol-4-yl)ethynyl)-4-oxo-1,2,3,4,6,7-hexahydroazepino[3,2,1-hi]indol-3-yl)-1H-1,2,4-triazole-3-carboxamide], the EC50 in series [3] and in series [4] was less than 5 nM throughout.

With `O=C(NC1CCc2cc(C#Cc3cnn(C4CCC4)c3)cc3c2N(CC3)C1=O)c1ncn(Cc2c(F)cccc2F)n1` (stereo not drawn) [III-30, N-(9-((1-cyclobutyl-1H-pyrazol-4-yl)ethynyl)-4-oxo-1,2,3,4,6,7-hexahydroazepino[3,2,1-hi]indol-3-yl)-1-(2,6-difluorobenzyl)-1H-1,2,4-triazole-3-carboxamide], the EC50 in series [3] and in series [4] was less than 5 nM in each case.

Regarding `Cn1cc(C#Cc2cc3c4c(c2)CCN4C(=O)C(NC(=O)c2ncn(Cc4ccccn4)n2)CC3)cn1` (stereo not drawn) [III-31, N-(9-((1-methyl-1H-pyrazol-4-yl)ethynyl)-4-oxo-1,2,3,4,6,7-hexahydroazepino[3,2,1-hi]indol-3-yl)-1-(pyridin-2-ylmethyl)-1H-1,2,4-triazole-3-carboxamide], the results for the EC50 in series [3] and in series [4] were 5 to 10 nM and less than 5 nM, respectively.

`Cn1cc(C#Cc2cc3c4c(c2)CCN4C(=O)C(NC(=O)c2ncn(Cc4ccccc4)n2)CC3)cn1` (stereo not drawn) [III-32, 1-benzyl-N-(9-((1-methyl-1H-pyrazol-4-yl)ethynyl)-4-oxo-1,2,3,4,6,7-hexahydroazepino[3,2,1-hi]indol-3-yl)-1H-1,2,4-triazole-3-carboxamide]: the EC50 in series [3] and in series [4] was less than 5 nM each time.

With `Cn1cc(C#Cc2cc3c4c(c2)CCN4C(=O)C(NC(=O)c2ccn(Cc4c(F)cccc4F)n2)CC3)cn1` (stereo not drawn) [XIII-1, 1-(2,6-difluorobenzyl)-N-(9-((1-methyl-1H-pyrazol-4-yl)ethynyl)-4-oxo-1,2,3,4,6,7-hexahydroazepino[3,2,1-hi]indol-3-yl)-1H-pyrazole-3-carboxamide], the EC50 in series [3] and in series [4] was 10 to 100 nM throughout.

Source of the values: patent publication EP4772510A2, “BENZAZEPINONE COMPOUND AND USE THEREOF” (HANGZHOU BIO-SINCERITY PHARMA-TECHCO., LTD., priority 2023, dated 2025).
